Experimental data published in patent US7081476B2, “Tocopherol enriched compositions for reducing IL6 levels” (Galileo Pharmaceuticals, Inc., priority 2001, dated 2006).
pEC50: −log10 of the molar value. “And” between values parts separate entries of the source, which are not always exact repeats. Equal entries are not always repeated. “Also recorded” adds a separate entry of the source.

Tests used:
expression of ELAM = assay: Cell-ELAM (E-selectin) assay in LPS/IL-1β stimulated endothelial cells; assay type: cell-based; conditions: for ELAM production (in words): activated endothelial cells
Description: Cell-ELAM Assay. Endothelial-Leukocyte Adhesion Molecule (ELAM), also known as E-selectin, is expressed on the surface of endothelial cells. In this assay, lipopolysaccharide (LPS) and IL-1β are used to stimulate the expression of ELAM; test agents are tested for their abilities to reduce this expression, in accordance with studies showing that reduction of leukocyte adhesion to endothelial cell surface is associated with decreased cellular damage (e.g., Takada, M., Et al., Transplantation 64: 1520–25, 1997; Steinberg, J. B., et al., J. Heart Lung Trans. 13:306–313, 1994).
Endothelial cells may be selected from any of a number of sources and cultured according to methods known in the art; including, for example, coronary artery endothelial cells, human brain microvascular endothelial cells (HBMEC; Hess, D. C., et al., Neurosci. Lett. 213(1): 37–40, 1996), or lung endothelial cells. Cells are conveniently cultured in 96-well plates. Cells are stimulated by adding a solution to each well containing 10 μg/ml LPS and 100 pg/ml IL-1β for 6 hours in the presence of test agent (specific concentrations and time may be adjusted depending on the cell type). Treatment buffer is removed and replaced with pre-warmed Fixing Solution® (100 μl/well) for 25 minutes at room temperature. Cells are then washed 3×, then incubated with Blocking Buffer (PBS+2% FBS) for 25 minutes at room temperature. Blocking Buffer containing Monoclonal E-Selectin Antibody (1:750, Sigma Catalog #S-9555) is added to each well. Plates are sealed and stored at 4° overnight. Plates are washed 4× with 160 μL Blocking Buffer per well. Second Antibody-HRP diluted 1:5000 in Blocking Buffer is then added (100 μL/well), and plates are incubated at room temperature (protected from light) for two hours. Plates are then washed 4× with Blocking Buffer before addition of 100 μL of ABTS Substrate solution at room temperature (Zymed, Catalog #00–2024). Wells are allowed to develop for 35 minutes, before measurement at 402 nm in a Fluoroskan® Reader with shake program for 10 seconds. Positive results are recorded as a decrease in ELAM concentration in tested wells, as compared to control wells.

[1] = test system: CRP production in human Hep3B cells; assay: Human Hep3B cells CRP assay (IL-1β, IL-6 and dexamethasone stimulated, CRP ELISA); assay type: cell-based; conditions: for reducing CRP production/levels (in words): Hep3B cells stimulated with IL-1B, IL-6 and dexamethasone
From the text: A. Human Hep3B Cells—CRP assay. Hep3B Cell Line is obtained from the American Type Culture Collection (ATCC Catalog No. HB-8064). The Hep3B cell line was derived from liver tissue of […]. The cells are epithelial in morphology and produce tumors in nude mice. The cells produce α-fetoprotein, hepatitis B surface antigen, albumin, α-2-macroglobulin, α-1-antitrypsin, transferrin, plasminogen, complement C3 and β-lipoprotein (Knowles B B, et al., Science, 1980, 209:497–499). This cell line has been widely used to study hepatocyte cytokine and acute phase protein release (e.g., Damtew B, et al., 1993, J Immunol 150:4001–4007).
HEP3B cells are grown in Minimum Essential Medium (MEM; GIBCO) supplemented with 10% Fetal Bovine Serum (FBS; Hyclone), 1× Penicillin/Streptomycin (GIBCO, Cat #. 15140-122) and 0.1 mM non-essential amino acids (GIBCO, Catalog No. 11140-050). Cells are thawed and transferred to warm medium according to standard methods known in the art.
Cells are incubated in flasks at 37° C. with 5% CO2 in an air atmosphere incubator. HEP3B growth media is changed every 2 days until the cells reach 70–80% confluence (approx. 3–4 days). For assay, the cells are transferred to 96-well plates, seeded at 5000 cells per well in culture media, and left to grow for 7 days in a 37° C. incubator (air supplemented with 5% CO2). Media is replaced daily until assay.
Test compounds are diluted into “Stimulus Buffer” (MEM medium containing 0.1 mM non-essential amino acids, 1× penicillin/streptomycin, 10% FBS with 10 ng/ml IL-1β, 20 ng/ml IL-6 and 1 μM dexamethasone. Media is removed from the cells and is replaced with 200 μl of test dilution. Cells are returned to the incubator for three days at 37° C. CRP ELISA is then performed on supernatant from the cells, as described below.
Costar EIA/RIA plates are coated with rabbit anti-human CRP (DAKO) diluted 1:4000 in carbonate buffer (100 μl/well) for 45 minutes at 37° C. Plates are then washed 5× with CRP washing buffer (50 mM Tris-HCI, 0.3M NaCl, […], pH 8.0) using an automatic plate washer. Plates may be dried, covered and refrigerated until use. Supernatant (100 μl) is removed from each well of the test plates and added to the corresponding well of a precoated ELISA plate.
100 μl HRP-conjugated rabbit anti-human CRP (DAKO) diluted 1:500 (in CRP wash buffer) is added to each well, followed by incubation for 30 minutes at 37° C. […] Finally, 50 μl of 1M H2SO4 is added to each well and absorbance at 450 nm is immediately measured in a microtiter spectrophotometer.
CRP measured as above is normalized to cell count per well, using a cell viability assay, such as the Cell Tracker Green assay. […] Plates are immediately read using a Fluoroskan® flourometer with a 485 excitation/538 emission filter pair.

[2] = test system: inflammation secondary to exposure to arachidonic acid; assay: Arachidonic acid mouse ear inflammation model; assay type: in vivo; conditions: topical to left ear, CD-1 mice, one hour after treatment
Description: This assay measures the ability of test compounds to prevent or reduce inflammation secondary to oxazolone or arachidonic acid.
A. Arachidonic acid. Albino male CD-1 mice, 7–9 weeks old were used in this test. A 20% (w/v) arachidonic acid solution in acetone is prepared. Twenty microliters of the arachidonic acid solution is applied to the dorsal left ear of the mouse. Immediately thereafter, test compounds (20 μL in 70% ethanol/30% propylene glycol) are applied to the left ear. The untreated right ears served as control. Mice are sacrificed by CO2 inhalation, one hour after treatment. The left and right ears are removed and 7 mm punch biopsies taken from each. The punch biopsies are weighed, and the differences calculated. […] Other non-alpha-tocopherol enriched tocopherol compositions can be tested for their ability to reduce inflammation in this model.

[3] = test system: IL-6 present in edematous fluid; assay: Carrageenan-induced rat paw edema assay, IL-6 in edematous fluid; assay type: in vivo; conditions: rats

pEC50 (expression of ELAM; endothelial cells, LPS and IL-1β, read-out: EC50 reduce the expression of ELAM)	Structure (SMILES)	ELAM production (in words) (expression of ELAM)	activity in ELAM assay (expression of ELAM; at 1000 micromolar)	reducing CRP production/levels (in words) [1]	reducing CRP levels ([1]; at about 3 to about 10 micromolar, Hep3B cells)	reduce inflammation secondary to arachidonic acid (ear punch weight difference) [2]	IL-6 levels in the edematous fluid (in words) ([3]; 10–100 mg/kg oral pretreatment over 3 days)	reduction in IL-6 present in edematous fluid ([3]; 3 days, 10–100 mg/kg/day oral pre-treatment, p<0.001)
	Cc1c(C)c2c(c(C)c1O)CC[C@@](C)(CCC[C@H](C)CCC[C@H](C)CCCC(C)C)O2 (relative stereo) [alpha-tocopherol, [2R-2R*(4R*,8R*)]-3,4-dihydro-2,5,7,8-tetramethyl-2-(4,8,12-trimethyltridecyl)-2H-1-benzopyran-6-ol, reference compound]	not	not active					
3.00 to 3.52 and 3.22	Cc1cc(O)cc2c1O[C@](C)(CCC[C@H](C)CCC[C@H](C)CCCC(C)C)CC2 (relative stereo) [delta-tocopherol, [2R-[2R*(4R*,8R*)]]-3,4-dihydro-2,8-dimethyl-2-(4,8,12-trimethyltridecyl)-2H-1-benzo-pyran-6-ol]	decreased		effective; also recorded: able to reduce				
	Cc1cc(O)c(C)c2c1OC(C)(CCCC(C)CCCC(C)CCCC(C)C)CC2 (stereo not drawn) [beta-tocopherol, 3,4-dihydro-2,5,8-trimethyl-2-(4,8,12-trimethyltridecyl)-2H-1-benzopyran-6-ol]	decreased		effective; also recorded: able to reduce	about 50%			
	Cc1c(O)cc2c(c1C)OC(C)(CCCC(C)CCCC(C)CCCC(C)C)CC2 (stereo not shown) [gamma-tocopherol, 3,4-dihydro-2,7,8-trimethyl-2-(4,8,12-trimethyltridecyl)-2H-1-benzyopyran-6-ol]	decreased		effective; also recorded: able to reduce		able to reduce inflammation	significantly reduced	42
